The record followed here is ChEMBL document CHEMBL5257022, “An integrated overview on pyrrolizines as potential anti-inflammatory, analgesic and antipyretic agents” (Eur J Med Chem, 2016).

pIC50: −log10 of the molar value. Bounds are passed on as bounds.

In data set [1] the target is T1, Prostaglandin G/H synthase 1 (Bos taurus) (UniProt O62664).
T1 sequence (whole entry): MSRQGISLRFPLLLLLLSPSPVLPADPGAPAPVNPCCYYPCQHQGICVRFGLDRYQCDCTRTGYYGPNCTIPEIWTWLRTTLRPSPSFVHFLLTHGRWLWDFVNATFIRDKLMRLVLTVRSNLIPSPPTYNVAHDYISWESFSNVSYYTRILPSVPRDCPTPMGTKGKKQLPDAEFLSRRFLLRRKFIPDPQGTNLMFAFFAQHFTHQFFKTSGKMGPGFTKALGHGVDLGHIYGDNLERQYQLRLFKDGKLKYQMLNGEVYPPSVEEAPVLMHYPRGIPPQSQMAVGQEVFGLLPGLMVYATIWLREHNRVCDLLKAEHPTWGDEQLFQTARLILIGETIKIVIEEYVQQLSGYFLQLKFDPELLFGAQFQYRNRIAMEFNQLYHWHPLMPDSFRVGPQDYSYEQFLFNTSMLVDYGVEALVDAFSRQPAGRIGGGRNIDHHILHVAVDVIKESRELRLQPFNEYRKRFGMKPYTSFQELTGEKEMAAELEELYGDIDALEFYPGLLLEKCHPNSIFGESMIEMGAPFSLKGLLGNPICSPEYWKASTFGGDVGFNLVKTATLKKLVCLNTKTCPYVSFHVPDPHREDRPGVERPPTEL
Kind of data set: Inhibition of COX1 in bovine thrombocyte at 10 uM relative to control.

Data set [2] addresses T2, Prostaglandin G/H synthase 1 (Homo sapiens, UniProt P23219). Nature of the data set: Inhibition of COX1 (unknown origin).
Data set [3] deals with T3, Polyunsaturated fatty acid 5-lipoxygenase (Homo sapiens, UniProt P09917).
T3 sequence (P09917 whole entry): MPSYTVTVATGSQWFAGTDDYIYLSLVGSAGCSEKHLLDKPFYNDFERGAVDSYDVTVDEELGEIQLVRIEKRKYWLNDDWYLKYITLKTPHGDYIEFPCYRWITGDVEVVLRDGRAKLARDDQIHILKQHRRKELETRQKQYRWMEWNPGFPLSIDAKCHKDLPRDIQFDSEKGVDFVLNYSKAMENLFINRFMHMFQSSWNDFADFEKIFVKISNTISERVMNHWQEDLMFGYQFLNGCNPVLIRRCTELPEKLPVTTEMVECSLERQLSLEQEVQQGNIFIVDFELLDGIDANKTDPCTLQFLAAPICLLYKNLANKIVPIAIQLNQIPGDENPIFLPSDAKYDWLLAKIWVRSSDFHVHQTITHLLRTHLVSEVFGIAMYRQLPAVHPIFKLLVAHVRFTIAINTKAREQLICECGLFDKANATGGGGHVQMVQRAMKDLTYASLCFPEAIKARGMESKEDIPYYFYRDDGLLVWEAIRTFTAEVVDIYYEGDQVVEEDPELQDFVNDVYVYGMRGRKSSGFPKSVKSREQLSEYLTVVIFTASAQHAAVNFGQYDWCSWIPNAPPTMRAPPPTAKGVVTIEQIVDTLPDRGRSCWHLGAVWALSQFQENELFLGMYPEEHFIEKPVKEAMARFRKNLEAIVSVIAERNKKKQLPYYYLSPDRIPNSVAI
Nature of the data set: Inhibition of 5-LOX (unknown origin).

Data set [4] addresses T4, Polyunsaturated fatty acid 5-lipoxygenase (Homo sapiens) (UniProt P09917).
T4 sequence (whole entry): T3 sequence (P09917 whole entry)
Kind of data set: Inhibition of 5-LOX in human PMNL at 10 uM relative to control. It is filed as cell-based.

In data set [5] the target is T5, Prostaglandin G/H synthase 2 (Homo sapiens, UniProt P35354).
T5 sequence (P35354 whole entry): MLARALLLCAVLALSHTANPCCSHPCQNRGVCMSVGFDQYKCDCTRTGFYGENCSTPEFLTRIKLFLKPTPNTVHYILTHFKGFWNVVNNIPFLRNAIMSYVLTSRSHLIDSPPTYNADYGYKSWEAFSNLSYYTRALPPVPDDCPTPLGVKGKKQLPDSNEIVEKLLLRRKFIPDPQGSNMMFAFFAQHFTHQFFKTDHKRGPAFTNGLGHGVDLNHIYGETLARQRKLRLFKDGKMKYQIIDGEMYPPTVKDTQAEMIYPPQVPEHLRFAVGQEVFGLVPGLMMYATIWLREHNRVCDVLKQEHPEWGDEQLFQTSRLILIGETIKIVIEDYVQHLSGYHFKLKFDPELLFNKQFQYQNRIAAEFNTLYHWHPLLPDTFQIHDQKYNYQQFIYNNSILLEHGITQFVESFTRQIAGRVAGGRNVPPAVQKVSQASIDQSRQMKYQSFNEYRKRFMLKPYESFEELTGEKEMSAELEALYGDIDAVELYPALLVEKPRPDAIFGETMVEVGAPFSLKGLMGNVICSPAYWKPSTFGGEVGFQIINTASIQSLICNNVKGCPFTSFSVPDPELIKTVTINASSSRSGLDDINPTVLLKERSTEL
Nature of the data set: Inhibition of COX2 (unknown origin).

Data set [6] has as its system Rattus norvegicus. Kind of data set: Antiinflammatory activity against carrageenan-induced paw edema in Wistar rat assessed as inhibition of edema at 30 mg/kg, po for 1 hr prior to carrageenan induction. Format: functional. (In general: Carrageenan injected into the paw causes an acute inflammation.)
For another data set, the species on record is Oryctolagus cuniculus. Nature of the data set: Inhibition of collagen-induced platelet aggregation in rabbit concha artery blood at 10 uM. It is filed as functional.
The test system of data set [7] is Rattus norvegicus. Nature of the data set: Antiinflammatory activity in rat assessed as inhibition of paw edema. It is filed as functional.
The nature of data set [8]: Gastrointestinal toxicity in rat assessed as ulcer index at 20 mg/kg, po. The settings on record: in vivo. It is filed as organism-based.
The nature of data set [9]: Drug excretion in human urine assessed as 4-hydroxy keto ro lac level. It is filed as ADME.
Data set [10] in a line: Toxicity in gastric mucosa of rat assessed as ulcer index at 400 mg/kg. Format: organism-based. The following applies: in vivo.
Data set [11] is described as follows: Drug excretion in human urine assessed as glucuronide conjugate level. It is filed as ADME.
Data set [12] is described as follows: Drug excretion in human urine assessed as keto ro lac level. It is filed as ADME.
In data set [13] the target is T2, Prostaglandin G/H synthase 1. Nature of the data set: Inhibition of human COX1.
In data set [14] the test system is Rattus norvegicus. Nature of the data set: Antiinflammatory activity in carrageenan induced Sprague-Dawley rat assessed as reduction in edema formation after 3 hrs. Format: functional. The settings on record: read-out: ID50 (the source's name).
Data set [15] concerns the target T5, Prostaglandin G/H synthase 2. Kind of data set: Inhibition of human COX2.
The species entered for data set [16] is Mus musculus. Kind of data set: Analgesic activity in mouse assessed as inhibition of acetic acid-induced writhing response relative to aspirin. It is filed as functional.
The subject of data set [17] is Rattus norvegicus. Nature of the data set: Antiinflammatory activity in rat assessed as fold change in inhibition of paw edema relative to phenylbutazone. It is filed as functional.
Data set [18] can be described thus: Toxicity in gastric mucosa of rat assessed as ulcer index at 10 mg/kg. The following applies: in vivo. Format: organism-based.
For data set [19], the system named is Mus musculus. Kind of data set: Analgesic activity in ddY mouse assessed as inhibition of acetic acid induced writhing at 30 mg/kg, po for 30 mins followed by acetic acid injection and measured after 5 to 10 mins. It is filed as functional. Set-up: scale not given: the % may be the effect or the level left. The settings on record: time 35-40 min. On the technique in general: In writhing tests, fewer writhes than in controls are read as antinociception.

Data set [20] can be described thus: Toxicity in gastric mucosa of rat assessed as ulcer index at 200 mg/kg. Format: organism-based. The settings on record: in vivo.

T2 sequence (P23219 whole entry): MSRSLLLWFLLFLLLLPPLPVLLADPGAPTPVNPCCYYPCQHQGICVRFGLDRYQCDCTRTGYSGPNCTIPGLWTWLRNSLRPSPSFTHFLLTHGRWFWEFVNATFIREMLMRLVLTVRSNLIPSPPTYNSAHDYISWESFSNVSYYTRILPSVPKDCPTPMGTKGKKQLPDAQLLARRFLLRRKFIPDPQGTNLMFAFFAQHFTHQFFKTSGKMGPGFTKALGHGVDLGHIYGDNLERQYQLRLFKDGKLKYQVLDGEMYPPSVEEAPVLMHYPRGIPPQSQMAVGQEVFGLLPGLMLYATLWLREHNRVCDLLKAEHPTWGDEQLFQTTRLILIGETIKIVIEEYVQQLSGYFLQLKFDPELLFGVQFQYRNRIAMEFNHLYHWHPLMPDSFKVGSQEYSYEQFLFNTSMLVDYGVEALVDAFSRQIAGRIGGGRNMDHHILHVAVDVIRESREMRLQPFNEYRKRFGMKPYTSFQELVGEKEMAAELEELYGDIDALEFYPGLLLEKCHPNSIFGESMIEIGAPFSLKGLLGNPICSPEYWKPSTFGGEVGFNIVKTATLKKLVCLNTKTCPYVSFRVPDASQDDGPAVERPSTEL

The compound `O=C(O)/C=C/c1c(-c2ccc(CCc3ccccc3)cc2)c(-c2ccccc2)c2n1CCC2` gave an IP in data set [1] of 58%. Moreover, the pIC50 (usually −log10 of the IC50, conventionally taken in molar units) in [2] is 5.00.
In [3], `c1ccc(-c2c(-c3ccco3)cn3c2CCC3)cc1` showed a pIC50 of 5.00. Moreover, the IP in data set [1] is 20%.
As to `CSc1ccc(-c2cn3c(c2-c2ccc(F)cc2)CCC3)cc1`, the IP was found to be 0% in [4] and 28% in data set [1]. For the same compound, the pIC50 in data set [5] is 7.00.
`CS(=O)(=O)c1ccc(-c2cn3c(c2-c2ccc(F)cc2)CCC3)cc1`: the IP in data set [4] turned out to be 0%. The pIC50 is 6.80 in data set [5] and 5.37 in data set [2].
As to `O=C(Nc1ccccc1)C1CCn2c1cc(-c1ccc(Cl)cc1)c2-c1ccc(Cl)cc1` (stereo not given), the inhibition in vivo (in general, the percentage by which the read-out fell short of the control) at 30 mg/kg in the data set with Rattus norvegicus [6] is 37.4%. Moreover, the inhibition (usually the relative decrease from the control value, in per cent) at 10 µM in the data set listed under Oryctolagus cuniculus turned out to be 78%.
Take `N#Cc1c(N)c(C(=O)Nc2ccccc2Cl)n2c1CCC2`: the “inhibition (INH)” value in the data set on Rattus norvegicus [7] is given as 36.1%. Besides, the UI in data set [8] turned out to be 9.2.
Take `CS(=O)(=O)c1ccc(-c2cn3c(c2-c2ccc(Cl)cc2)CCC3)cc1`: the IP in data set [4] was 0%. The pIC50 is 8.10 in data set [5] and 5.09 in [2].
For the compound `CS(=O)(=O)Nc1ccc(-c2cn3c(c2-c2ccccc2)CCC3)cc1`, the pIC50 in [3] is 5.47; in [5] it was 5.44. Besides, the IP in data set [1] came to 10%.
The compound `c1ccc(-c2c(-c3cccs3)cn3c2CCC3)cc1` showed a negative logarithm of the IC50 (pIC50) in data set [3] of 5.00.
As to `Cc1ccccc1NC(=O)c1c(N)c(C#N)c2n1CCC2`, the “inhibition (INH)” value in the data set on Rattus norvegicus [7] is 31.6%. Besides, in data set [8], the UI was 11.3.
For the compound `Cc1ccc(NCC2Cn3cccc3C2=O)cc1` (stereo not given), the values for the Drug excretion in [9], in data set [11] and in data set [12] were 12%, 28% and 60%, respectively. In [10], the UI came out at 0.
For the compound `O=C(c1ccccc1)c1ccc2n1CC[C@H]2C(=O)O`, the pIC50 in data set [13] and in data set [15] was < 4.00 throughout. For the same compound, the ED50 in the data set with Rattus norvegicus [14] is 4 mg/kg.
`CSc1ccc(-c2cn3c(c2-c2ccc(C)cc2)CCC3)cc1` yielded an IP in [4] of 0%. Further, the pIC50 in [5] was 6.05; in data set [2], 7.52.
For `Cc1ccc(-c2cn3c(c2-c2ccccc2)CCC3)s1`, the IP in [4] and in data set [1] was 0% in each case. This compound had a pIC50 in data set [5] of 5.74.
On to `Cc1ccc(-c2c(-c3ccc(S(C)(=O)=O)cc3)cn3c2CCC3)cc1`, for which the pIC50 in data set [5] is 8.30; in data set [2], 6.15.
Compound `CC1(C)Cn2c(CC(=O)O)c(-c3ccc(Cl)cc3)c(-c3ccccc3)c2C1=O` showed a negative-log IC50 (pIC50) in data set [5] of 5.68.
Compound `Brc1ccc(-c2cn3c(c2-c2ccccc2)CCC3)s1` gave a negative logarithm of the IC50 (pIC50) in data set [3] of 5.08. The IP in data set [1] came out at 25%.
As for `O=C(c1ccccc1)c1ccc2n1CCC2C(=O)O` (racemic) [KETOROLAC], the pIC50 in data set [13] was 5.91; in data set [15], 5.46. Besides, in the data set on Rattus norvegicus [14], the ED50 amounted to 0.08 mg/kg. Further, the results for the “fold change (FC)” value in the data set filed under Mus musculus [16] and in the data set on Rattus norvegicus [17] were 350 and 36, respectively.
As for `CS(=O)(=O)c1ccc(-c2cn3c(c2-c2ccccc2)CCC3)cc1`, the pIC50 is 5.00 in data set [3] and 7.52 in data set [5]. In data set [1], this compound came in with an IP of 25%.
For the compound `CS(=O)(=O)Nc1ccc(-c2cn3c(c2-c2ccc(Cl)cc2)CCC3)cc1`, the IP in data set [4] and in data set [1] was 0% each time.
With `COc1ccc2c(c1)c(CC(=O)O)c(C)n2C(=O)c1ccc(Cl)cc1` [INDOMETHACIN], the UI in data set [18] stood at 14.
`O=C(Nc1ccccc1Cl)c1c2[nH]cnc(=O)c2c2n1CCC2`: the “inhibition (INH)” value in the data set with Rattus norvegicus [7] came to 30.3%. Further, the UI in data set [8] came to 15.1.
As to `O=C(O)C1CCn2c1cc(-c1ccc(Cl)cc1)c2-c1ccc(Cl)cc1` (stereo not given), the inhibition in vivo at 30 mg/kg with Rattus norvegicus [6] is 52.3%. Moreover, the Activity with Mus musculus [19] is recorded as 81.3%.
For `COC1c2c(-c3ccccc3)c(-c3ccc(Cl)cc3)c(C)n2CC1(C)C` (stereo not given), the negative logarithm of the IC50 (pIC50) in [5] was 5.12.
`CC(C)Cc1ccc(C(C)C(=O)O)cc1` (stereo not given) [IBUPROFEN]: in [20], the UI turned out to be 13.3.
Turning to `Cc1ccccc1NC(=O)c1c2[nH]cnc(=O)c2c2n1CCC2`, the “inhibition (INH)” value in the data set with Rattus norvegicus [7] is given as 28.8%. Moreover, the UI in data set [8] is reported as 17.4.
Regarding `COc1ccc(-c2c(-c3ccc(Cl)cc3)cc3n2CCC3C(=O)O)cc1` (stereo not given), in the data set on Rattus norvegicus [6], the inhibition in vivo at 30 mg/kg is 48.2%. Besides, the Activity in the data set with Mus musculus [19] was 87.3%.
Turning to `O=C(c1ccccc1)c1ccc2n1CC[C@@H]2C(=O)O`, the negative-log IC50 (pIC50) in data set [13] was 6.34; in [15], 5.84. The ED50 with Rattus norvegicus [14] is 0.02 mg/kg.
The compound `CSc1ccc(-c2cn3c(c2-c2ccccc2)CCC3)cc1` displayed an IP in data set [4] of 0%. For the same compound, the values for the pIC50 in data set [5] and in data set [2] were 6.00 and 5.96, respectively.
In [4], `Clc1ccc(-c2cn3c(c2-c2ccccc2)CCC3)s1` returned an IP of 0%. This compound showed a pIC50 in data set [2] of 5.41.
